Test [1] has as its system transformed budding yeast TM182-BcOS1-I365S. Put plainly: Antifungal compound sensitivity test of transformed budding yeast TM182-BcOS1-I365S (Example 6). Format: cell-based, Saccharomyces cerevisiae. The settings on record: final concentration 6 ppm, 30° C. 67 hours; for Degree of growth of budding yeast (%) TM182-BcOS1-I365S Gal-Ura-Leu medium: control medium.
For test [2] the test system is unchanged. The test is described as above. Format: cell-based, Saccharomyces cerevisiae. The settings on record: 30° C. 67 hours; for Degree of growth of budding yeast (%) TM182-BcOS1-I365S Gal-Ura-Leu medium: control medium. The procedure: The transformed budding yeast TM182-BcOS1-I365S prepared in Example 5 was cultured at 30° C. for 18 hours in a Glu-Ura-Leu medium. The absorbance at 600 nm of a cell suspension of the grown transformed budding yeast was measured, and a cell suspension diluted with sterilized distilled water to the absorbance of 0.1 was prepared. Further, a cell suspension in which the aforementioned cell suspension of the transformed budding yeast TM182-BcOS1-I365S was diluted 200-fold with a Glu-Ura-Leu medium and, as a control, a cell suspension in which the cell suspension was diluted 200-fold with a Gal-Ura-Leu medium were prepared. A solution in which each of Compound (1) to (3) was dissolved in dimethylsulfoxide (DMSO) to the concentration of 60 ppm, a solution in which each of Compounds (4) and (5) was dissolved in dimethylsulfoxide (DMSO) to the concentration of 2000 ppm, and a solution in which each of Compounds (6) and (7) was dissolved in dimethylsulfoxide (DMSO) to the concentration of 20 ppm were prepared, and two microplates were prepared in which each 2.0 μL per well of the Compound solution and DMSO as a control were dispensed into two wells. In one microplate among them, each 200 μL of cell suspensions of the transformed budding yeast TM182-BcOS1-I365S which had been prepared by dilution with a Glu-Ura-Leu medium as described above was dispensed, and cultured by allowing to stand at 30° C. for 67 hours. In another microplate, as a control, each 200 μL of cell suspensions of the transformed budding yeast TM182-BcOS1-I 365S which had been prepared by dilution with a Gal-Ura-Leu medium was dispensed, and cultured by allowing to stand at 30° C. for 67 hours. After culturing, the absorbance at 600 nm of each well was measured with a microplate reader.
Degrees of growths of both of the transformed budding yeasts cultured under the presence of Compounds (1) to (7) and budding yeast as a control therefor are shown in Table 2. Degrees of growths of both of the transformed budding yeasts and budding yeast as a control are expressed by a relative value in percentage, letting the absorbance at 600 nm at the concentration of the Compound of 0 ppm to be 100. It was confirmed that an inhibiting degree of growth of the transformed budding yeast TM182-BcOS1-I 365S by each test substance was grater than an inhibiting degree of growth of the transformed budding yeast AH22-BcOS1-I 365S by each test substance, and the transformed budding yeast TM182-BcOS1-I365S was a transformed cell with the enhanced sensitivity to an antifungal compound as compared with the transformed budding yeast AH22-BcOS1-I365S.

Consider `CC12CC1(C)C(=O)N(c1cc(Cl)cc(Cl)c1)C2=O` (centres unmarked) [Compound (1), Procymidone], for which, in test [1], the “Degree of growth of budding yeast (%) TM182-BcOS1-I365S Gal-Ura-Leu medium” value came to 99% and the “Degree of growth of budding yeast (%) TM182-BcOS1-I365S Glu-Ura-Leu medium” value is 9%.

In the case of `CC(C)NC(=O)N1CC(=O)N(c2cc(Cl)cc(Cl)c2)C1=O` [Compound (2), Iprodione], in test [1], the “Degree of growth of budding yeast (%) TM182-BcOS1-I365S Gal-Ura-Leu medium” value was found to be 88% and the “Degree of growth of budding yeast (%) TM182-BcOS1-I365S Glu-Ura-Leu medium” value is 11%.

For the compound `C=CC1(C)OC(=O)N(c2cc(Cl)cc(Cl)c2)C1=O` (centres unmarked) [Compound (3), Vinclozolin], in test [1], the “Degree of growth of budding yeast (%) TM182-BcOS1-I365S Gal-Ura-Leu medium” value was determined as 92% and the “Degree of growth of budding yeast (%) TM182-BcOS1-I365S Glu-Ura-Leu medium” value worked out at 9%.

Turning to `O=[N+]([O-])c1c(Cl)c(Cl)c(Cl)c(Cl)c1Cl` [Compound (4), Quintozene], in test [2] (final concentration 20 ppm), the “Degree of growth of budding yeast (%) TM182-BcOS1-I365S Gal-Ura-Leu medium” value is reported as 101% and the “Degree of growth of budding yeast (%) TM182-BcOS1-I365S Glu-Ura-Leu medium” value stood at 41%.

`COP(=S)(OC)Oc1c(Cl)cc(C)cc1Cl` [Compound (5), Tolclofos-methyl]: in test [2] (final concentration 20 ppm), the “Degree of growth of budding yeast (%) TM182-BcOS1-I365S Gal-Ura-Leu medium” value is on record as 76% and the “Degree of growth of budding yeast (%) TM182-BcOS1-I365S Glu-Ura-Leu medium” value was 13%.

Turning to `N#Cc1c[nH]cc1-c1cccc2c1OC(F)(F)O2` [Compound (6), Fludioxonil], in test [2] (final concentration 0.2 ppm), the “Degree of growth of budding yeast (%) TM182-BcOS1-I365S Gal-Ura-Leu medium” value stood at 93% and the “Degree of growth of budding yeast (%) TM182-BcOS1-I365S Glu-Ura-Leu medium” value was determined as 7%.

Consider `N#Cc1c[nH]cc1-c1cccc(Cl)c1Cl` [Compound (7), Fenpiclonil], for which, in test [2] (final concentration 0.2 ppm), the “Degree of growth of budding yeast (%) TM182-BcOS1-I365S Gal-Ura-Leu medium” value was 90% and the “Degree of growth of budding yeast (%) TM182-BcOS1-I365S Glu-Ura-Leu medium” value was found to be 22%.

Values taken from patent publication US7452688B2, “Transformed cell with enhanced sensitivity to antifungal compound and use thereof” (Sumitomo Chemical Company, Limited, priority 2002, dated 2008).
